Results from patent US4123552A, “Compositions for preserving crops and animal feedstuffs” (Chevron Research Company, priority 1975, dated 1978).
≈ marks a conversion by molar mass, not a printed value.

How the values were obtained:
Rhizopus sp. = assay: Concentration for 90% control of pathogen on corn seeds (Table V), Rhizopus sp.; format: cell-based; settings: 5 days after treatment
Experimental: (§1) A small amount of acetone was added to the bis-ester to make specific volume, plus a small portion of emulsifier making it into a slurry. This preparation was diluted with water to the desired concentration. Solution was then evenly distributed on the wall of a glass jar. High moisture feedcorn with natural infection was stored frozen after harvest until used for this test. The corn seeds were rolled in the jar until they were coated and the solution was completely absorbed on them.
(§2) Following the treatment, the corn seeds were plated on Potato Dextrose Agar plates. For comparison, untreated corn seeds were also plated. Propionic acid was also tested for comparison.
(§3) A variety of bis-esters was tested for the control of seed- and soil-borne pathogens during the storage of corn seeds (Zea mays) by the procedure of Example 11. For comparison, propionic acid was also tested.
(§4) Control of each pathogen was determined by mycelial growth in millimeters in the treated seeds relative to untreated seeds. Mycelial growth of Rhizopus species and Fusarium species was evaluated 5 days after treatment. Mycelial growth in Aspergillus niger was evaluated 14 days after treatment.
(§5) The bis-ester tested and the concentration of active ingredient in ounces per 100 lbs. of corn seeds for 90 percent control of each pathogen species are tabulated in Table V.

Fusarium sp. = assay: Concentration for 90% control of pathogen on corn seeds (Table V), Fusarium sp.; format: cell-based; settings: 5 days after treatment
Experimental: as §1, §2, §3, §4, §5

All Species = assay: Control of seed- and soil-borne pathogens during storage of corn seeds (Table IV), all species; format: cell-based, Rhizopus, Penicillium, Fusarium; settings: relative to untreated check
Experimental: A variety of bis-esters was tested for the control of seed- and soil-borne pathogens during storage of corn seeds (Zea mays) by the following procedure.
as §1, §2
The percentage control of all species was based on the total sum average of mycelial growth in millimeters of all species in the treated seeds relative to the untreated check. The fast growing Rhizopus was evaluated 7 days after treatment, the other fungi after 14 days.

Aspergillus niger [1] = assay: Concentration for 90% control of pathogen on corn seeds (Table V), Aspergillus niger; format: cell-based; settings: 14 days after treatment; for Conc. for 90% Control, Aspergillus niger: corn seeds
Experimental: as §1, §2, §3, §4, §5

high moisture corn = assay: Preservation of high moisture corn in ventilated cans (time until temperature exceeds room temperature); settings: for Weeks Effective: corn 25 percent moisture, 70-72 F
Experimental: High moisture corn (25 percent moisture) was treated with various methylene and polyoxymethylene esters of propionic or acetic acid of various dosages. The esters were applied to the corn in a mixer for one minute at 32 RPM. Three replicate two gallon ventilated cans were filled with the treated corn. The cans were then held at a temperature of 70°-72° F. Temperature readings were taken semi-weekly by means of thermocouples in the center of each can. When the temperature exceeded constant room temperature for at least an 8-hour period the treatment was considered broken.

[2] = Solubility of insecticides in methylene bispropionate; format: physicochemical; settings: solvent methylene bispropionate
Experimental: Methylene bispropionate was tested as a solvent for various insecticides. […] O,S-dimethylN-acetyl phosphoramidothioate was soluble in methylene bispropionate to the extent of 5 percent by weight. Chlordane was soluble in methylene bispropionate to the extent of at least 75 percent by weight.

[3] = system: Trichophyton interdigitale; assay: Antimicrobial activity of MBP on nutrient agar, Trichophyton interdigitale; format: cell-based; settings: read-out: Germistatic Concentration of MBP
Experimental: (§6) Microbiological tests were conducted to determine the antimicrobial activity of methylene bispropionate (MBP). The minimum concentration of MBP, capable of inhibiting the growth of five species of bacteria, two species of mold and one species of yeast was determined. Petri plates containing nutrient agar and various concentrations of MBP were inoculated with each of the test species. The identification of these organisms and the effective concentration of MBP inhibiting growth are shown below: […]

Bacillus subtilis = assay: Antimicrobial activity of MBP on nutrient agar, Bacillus subtilis; format: cell-based; settings: read-out: Germistatic Concentration of MBP
Experimental: as §6

Escherichia coli = assay: Antimicrobial activity of MBP on nutrient agar, Escherichia coli; format: cell-based; settings: read-out: Germistatic Concentration of MBP
Experimental: as §6

Aspergillus niger [4] = assay: Antimicrobial activity of MBP on nutrient agar, Aspergillus niger; format: cell-based; settings: read-out: Germistatic Concentration of MBP
Experimental: as §6

fungal growth = assay: Visual fungal growth rating on treated crops in ventilated cans; set-up: key: 1 = no growth, 10 = heavy uniform growth; settings: 1-10 basis
Experimental: Methylene bispropionate was applied to a variety of crops at various dosages by spraying or in a mixer. Two ventilated cans were filled with each treated crop. The cans were then maintained at 70° F. ±5° F. Each can was periodically visually observed for fungal growth and the observations were translated into a growth rating on a 1-10 basis; 1 indicating no growth and 10 indicating heavy uniform growth. For comparison, two samples of each untreated crop were also tested. The crops employed, the percent weight methylene bispropionate (MBP) based on weight crop, and the fungal rating 2, 7-8 and 28-29 days after treatment are tabulated in Table III.

[5] = Acute oral toxicity in white rats; settings: rat, in vivo
From the text: Methylene bispropionate was subjected to acute oral toxicity studies using white rats.

Streptococcus pyogenes = assay: Antimicrobial activity of MBP on nutrient agar, Streptococcus pyogenes; format: cell-based; settings: read-out: Germistatic Concentration of MBP
Experimental: as §6

Pseudomonas aeruginosa = assay: Antimicrobial activity of MBP on nutrient agar, Pseudomonas aeruginosa; format: cell-based; settings: read-out: Germistatic Concentration of MBP
Experimental: as §6

Staphylococcus aureus = assay: Antimicrobial activity of MBP on nutrient agar, Staphylococcus aureus; format: cell-based; settings: read-out: Germistatic Concentration of MBP
Experimental: as §6

Candida albicans = assay: Antimicrobial activity of MBP on nutrient agar, Candida albicans; format: cell-based; settings: read-out: Germistatic Concentration of MBP
Experimental: as §6

## CC(C)C(=O)OCOCOC(=O)C(C)C [Oxybismethylene Bisisobutyrate]
Rhizopus sp.
  Conc. for 90% Control, Rhizopus sp.: 1.2 oz./100 lbs.
Fusarium sp.
  Conc. for 90% Control, Fusarium sp.: 0.88 oz./100 lbs.
All Species; 1.0 Oz./100 Lbs.
  % Control All Species: 73%
All Species; 2.5 Oz./100 Lbs.
  % Control All Species: 87%
All Species; 6.4 Oz./100 Lbs.
  % Control All Species: 100%
All Species; 16 Oz./100 Lbs.
  % Control All Species: 100%
Aspergillus niger [1]
  Conc. for 90% Control, Aspergillus niger: 0.88 oz./100 lbs.

## CCC(=O)OC(OC(=O)CC)C(Cl)(Cl)Cl [2,2,2-Trichloroethylidene Bispropionate]
All Species; 1.0 Oz./100 Lbs.
  % Control All Species: 8%
All Species; 2.5 Oz./100 Lbs.
  % Control All Species: 54%
All Species; 6.4 Oz./100 Lbs.
  % Control All Species: 74%
All Species; 18 Oz./100 Lbs.
  % Control All Species: 89%

## CCC(=O)O [Propionic acid, reference compound]
Rhizopus sp.
  Conc. for 90% Control, Rhizopus sp.: 3.8 oz./100 lbs.
Fusarium sp.
  Conc. for 90% Control, Fusarium sp.: 9.6 oz./100 lbs.
High moisture corn; 2 Oz/Bu
  Weeks Effective: 6 Weeks
High moisture corn; 3 Oz/Bu
  Weeks Effective: 6 Weeks
High moisture corn; 4 Oz/Bu
  Weeks Effective: > 12 Weeks
High moisture corn; 6 Oz/Bu
  Weeks Effective: > 12 Weeks
All Species; 1.0 Oz./100 Lbs.
  % Control All Species: 28%
All Species; 2.5 Oz./100 Lbs.
  % Control All Species: 60%
All Species; 6.4 Oz./100 Lbs.
  % Control All Species: 99%
All Species; 16 Oz./100 Lbs.
  % Control All Species: 99%
Aspergillus niger [1]
  Conc. for 90% Control, Aspergillus niger: 3.4 oz./100 lbs.

## ClC1=C(Cl)C2(Cl)C3C(Cl)C(Cl)CC3C1(Cl)C2(Cl)Cl (centres unmarked) [Chlordane]
[2]
  solubility in methylene bispropionate: at least 75 percent by weight

## CCOP(=S)(OCC)Oc1ccc([N+](=O)[O-])cc1 [parathion, O,O-diethyl-O-p-nitrophenyl phosphorothioate]
[2]
  miscibility with methylene bispropionate (in words): miscible with methylene bispropionate in all proportions

## CCC(=O)OCOC(=O)CC [Methylene Bispropionate]
[3]
  MIC: 800 µg/mL (≈ 4.99 mM)
Bacillus subtilis
  MIC: 8000 µg/mL (≈ 49.9 mM)
Rhizopus sp.
  Conc. for 90% Control, Rhizopus sp.: 0.85 oz./100 lbs.
Fusarium sp.
  Conc. for 90% Control, Fusarium sp.: 0.5 oz./100 lbs.
Escherichia coli
  MIC: 6000 µg/mL (≈ 37.5 mM)
Aspergillus niger [4]
  MIC: 800 µg/mL (≈ 4.99 mM)
High moisture corn; 3 Oz/Bu
  Weeks Effective: > 12 Weeks
High moisture corn; 6 Oz/Bu
  Weeks Effective: > 12 Weeks
High moisture corn; from Table II
  effectiveness in preservation of high moisture corn (in words): remarkably superior to propionic acid in the preservation of high moisture corn
Fungal growth; Hay (4" seedlings), […] Wt MBP, 7-8 days
  Fungal Rating: 0
Fungal growth; Hay (4" seedlings), […] Wt MBP, 28-29 days
  Fungal Rating: 4
Fungal growth; Hay (4" seedlings), […] Wt MBP, 2 days
  Fungal Rating: 0
Fungal growth; Sorghum (33% H2 O), 0.51 % Wt MBP, 7-8 days
  Fungal Rating: 0
Fungal growth; Sorghum (33% H2 O), 0.51 % Wt MBP, 28-29 days
  Fungal Rating: 0
Fungal growth; Sorghum (33% H2 O), 0.51 % Wt MBP, 2 days
  Fungal Rating: 0
Fungal growth; Soybeans (26% H2 O), 0.51 % Wt MBP, 7-8 days
  Fungal Rating: 0
Fungal growth; Soybeans (26% H2 O), 0.51 % Wt MBP, 28-29 days
  Fungal Rating: 0
Fungal growth; Soybeans (26% H2 O), 0.51 % Wt MBP, 2 days
  Fungal Rating: 0
Fungal growth; Wheat (26% H2 O), 0.6 % Wt MBP, 7-8 days
  Fungal Rating: 0
Fungal growth; Wheat (26% H2 O), 0.6 % Wt MBP, 28-29 days
  Fungal Rating: 0
Fungal growth; Wheat (26% H2 O), 0.6 % Wt MBP, 2 days
  Fungal Rating: 0
Fungal growth; Wood Chips (freshly cut), 1.4 % Wt MBP, 7-8 days
  Fungal Rating: 0
Fungal growth; Wood Chips (freshly cut), 1.4 % Wt MBP, 28-29 days
  Fungal Rating: 0
Fungal growth; Wood Chips (freshly cut), 1.4 % Wt MBP, 2 days
  Fungal Rating: 0
All Species; 1.0 Oz./100 Lbs.
  % Control All Species: 97%
All Species; 2.5 Oz./100 Lbs.
  % Control All Species: 100%
All Species; 6.4 Oz./100 Lbs.
  % Control All Species: 100%
All Species; 16 Oz./100 Lbs.
  % Control All Species: 100%
[5]
  LD50: 2800 mg/kg
Streptococcus pyogenes
  MIC: 700 µg/mL (≈ 4.37 mM)
Pseudomonas aeruginosa
  MIC: 7000 µg/mL (≈ 43.7 mM)
Staphylococcus aureus
  MIC: 1000 µg/mL (≈ 6.24 mM)
Candida albicans
  MIC: 1000 µg/mL (≈ 6.24 mM)
Aspergillus niger [1]; Aspergillus niger, 336 h, 0.16 oz./100 lbs.
  inhibition of growth at 0.16 oz/100 lb: 99%
Aspergillus niger [1]
  Conc. for 90% Control, Aspergillus niger: 0.16 oz./100 lbs.

## CCC(=O)OC(C)OC(=O)CC [Ethylidene Bispropionate]
All Species; 1.0 Oz./100 Lbs.
  % Control All Species: 44%
All Species; 2.5 Oz./100 Lbs.
  % Control All Species: 50%
All Species; 6.4 Oz./100 Lbs.
  % Control All Species: 83%
All Species; 16 Oz./100 Lbs.
  % Control All Species: 91%

## CC(=O)OCOCOC(C)=O [Oxybismethylene Acetate, Oxybismethylene Bisacetate]
High moisture corn; 3 Oz/Bu
  Weeks Effective: 5 Weeks
High moisture corn; 6 Oz/Bu
  Weeks Effective: > 12 Weeks
